Data: ChEMBL document CHEMBL1201862, “PubChem BioAssay data set” (2004)
The source made the active and inactive calls.

What was measured:
[1] = Counterscreen for IDE inhibitors: Luminescence-based cell-based high throughput dose response assay to identify compounds that are cytotoxic to HEK cells. [Related pubchem assays: 434962 (Primary screen (IDE inhibitors in singlicate)), 449730 (Counterscreen (Cytotoxicity in triplicate)), 435028 (Confirmation (IDE inhibitors in triplicate)) …; format: functional; conditions: HEK293
Insulin-degrading enzyme = biological target: T1, Insulin-degrading enzyme (Homo sapiens, UniProt P14735); experiment: Dose Response: Fluorescence polarization-based cell-based high throughput dose response assay for inhibitors of insulin-degrading enzyme (IDE). [Related pubchem assays: 434962 (Primary screen (IDE inhibitors in singlicate)), 449730 (Counterscreen (Cytotoxicity in triplicate)), 435028 (Confirmation (IDE inhibitors in triplicate)), 434984 (Summary …; format: functional
T1 sequence (P14735 whole entry): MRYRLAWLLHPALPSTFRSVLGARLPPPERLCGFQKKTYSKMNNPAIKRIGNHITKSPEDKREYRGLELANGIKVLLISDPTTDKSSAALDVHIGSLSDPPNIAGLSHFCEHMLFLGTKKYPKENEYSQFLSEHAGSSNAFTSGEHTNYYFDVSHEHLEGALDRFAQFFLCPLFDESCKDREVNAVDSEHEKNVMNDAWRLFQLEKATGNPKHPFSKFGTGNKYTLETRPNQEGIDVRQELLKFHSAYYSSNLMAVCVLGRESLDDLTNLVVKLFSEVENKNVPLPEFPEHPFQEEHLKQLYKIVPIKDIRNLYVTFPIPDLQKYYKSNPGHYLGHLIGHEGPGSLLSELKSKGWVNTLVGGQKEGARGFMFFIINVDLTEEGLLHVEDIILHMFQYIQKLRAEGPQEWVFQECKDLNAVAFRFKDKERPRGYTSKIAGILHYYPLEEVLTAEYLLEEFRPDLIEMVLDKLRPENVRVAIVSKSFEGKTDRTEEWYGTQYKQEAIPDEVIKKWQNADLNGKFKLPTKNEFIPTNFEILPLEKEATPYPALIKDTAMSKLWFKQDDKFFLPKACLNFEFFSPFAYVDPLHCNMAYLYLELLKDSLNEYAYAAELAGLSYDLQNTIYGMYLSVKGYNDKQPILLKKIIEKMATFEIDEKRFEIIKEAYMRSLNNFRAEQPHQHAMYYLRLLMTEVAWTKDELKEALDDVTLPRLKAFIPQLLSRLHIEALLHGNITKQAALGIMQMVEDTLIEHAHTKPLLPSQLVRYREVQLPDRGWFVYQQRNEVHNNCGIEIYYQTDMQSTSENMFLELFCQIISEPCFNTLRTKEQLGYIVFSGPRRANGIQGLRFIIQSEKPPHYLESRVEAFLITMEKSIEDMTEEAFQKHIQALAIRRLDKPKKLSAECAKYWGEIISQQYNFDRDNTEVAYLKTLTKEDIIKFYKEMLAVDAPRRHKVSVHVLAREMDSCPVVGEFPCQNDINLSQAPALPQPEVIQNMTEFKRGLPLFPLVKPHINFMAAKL

[2] = biological target: T2, Short transient receptor potential channel 4 (Mus musculus, UniProt Q9QUQ5); experiment: mouse TRPC4 channel inhibitors, dose response, cell-based, HEK293 TRPC4/mu-opioid, Fluo-4 calcium (AID 434942); format: functional;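 also: potency of inhibitors blocking the TRPC4 calcium response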
T2 sequence (Q9QUQ5 whole entry): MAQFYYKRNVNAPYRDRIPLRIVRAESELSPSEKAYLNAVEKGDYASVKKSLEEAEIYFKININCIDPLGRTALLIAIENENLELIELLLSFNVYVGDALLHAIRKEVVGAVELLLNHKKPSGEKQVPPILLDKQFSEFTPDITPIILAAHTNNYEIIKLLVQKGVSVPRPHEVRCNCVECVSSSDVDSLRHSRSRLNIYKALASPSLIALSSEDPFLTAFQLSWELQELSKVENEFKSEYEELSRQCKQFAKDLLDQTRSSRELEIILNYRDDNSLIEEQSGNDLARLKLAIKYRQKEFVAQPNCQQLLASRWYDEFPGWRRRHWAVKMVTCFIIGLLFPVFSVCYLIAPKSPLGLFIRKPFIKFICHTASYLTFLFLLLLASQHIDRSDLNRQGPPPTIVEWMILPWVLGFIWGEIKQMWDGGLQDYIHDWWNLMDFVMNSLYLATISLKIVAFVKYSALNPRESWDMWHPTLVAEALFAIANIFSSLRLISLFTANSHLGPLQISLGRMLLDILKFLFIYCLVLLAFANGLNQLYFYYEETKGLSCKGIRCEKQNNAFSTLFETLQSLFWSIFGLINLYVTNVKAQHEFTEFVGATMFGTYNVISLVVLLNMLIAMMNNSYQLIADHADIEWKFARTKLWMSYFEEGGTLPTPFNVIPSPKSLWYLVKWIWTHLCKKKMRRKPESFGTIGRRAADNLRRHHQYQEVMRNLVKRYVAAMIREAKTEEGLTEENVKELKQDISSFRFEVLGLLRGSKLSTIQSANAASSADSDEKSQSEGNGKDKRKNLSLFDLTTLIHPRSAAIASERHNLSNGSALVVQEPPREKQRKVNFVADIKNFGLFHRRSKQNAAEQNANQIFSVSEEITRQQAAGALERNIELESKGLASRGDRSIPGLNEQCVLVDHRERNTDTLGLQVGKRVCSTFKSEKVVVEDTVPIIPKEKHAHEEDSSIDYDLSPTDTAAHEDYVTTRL

[3] = inhibitors of firefly luciferase expression or activity, dose response, H4 neuroglioma cells, luminescence (AID 1990); format: functional, cell-based
[4] = luciferase reporter signal reduction – luminescence, H4-C neuroglioblastoma cells, dose response (AID 2458); format: functional, cell-based;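 also: H4 neuroglioblastoma cells stably carrying a luciferase reporter gene fusion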
cells = format: functional, cell-based
[5] = Luminescence Cell-Based Dose Response HTS to Identify Inhibitors of 5'UTR Stem-Loop Driven Prion Protein mRNA Translation in H4 Neuroglioblastoma Cells. [Related pubchem assays: 1827 (Project Summary), 1813 (Primary HTS)]; format: functional
[6] = biological target: T3, Heat shock factor protein 1 (Mus musculus, UniProt P38532); experiment: inhibition of MG132-induced HSE-luciferase signal, confirmation, cell-based, NIH3T3, luminescence, dose retest (AID 2382); format: functional;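 also: NIH3T3 fibroblasts with HSF1-driven luciferase reporter stressed by proteasome inhibitor MG132; luminescence from HSF1-driven luciferase expression after 8 hours of MG132 stress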
T3 sequence (P38532 whole entry): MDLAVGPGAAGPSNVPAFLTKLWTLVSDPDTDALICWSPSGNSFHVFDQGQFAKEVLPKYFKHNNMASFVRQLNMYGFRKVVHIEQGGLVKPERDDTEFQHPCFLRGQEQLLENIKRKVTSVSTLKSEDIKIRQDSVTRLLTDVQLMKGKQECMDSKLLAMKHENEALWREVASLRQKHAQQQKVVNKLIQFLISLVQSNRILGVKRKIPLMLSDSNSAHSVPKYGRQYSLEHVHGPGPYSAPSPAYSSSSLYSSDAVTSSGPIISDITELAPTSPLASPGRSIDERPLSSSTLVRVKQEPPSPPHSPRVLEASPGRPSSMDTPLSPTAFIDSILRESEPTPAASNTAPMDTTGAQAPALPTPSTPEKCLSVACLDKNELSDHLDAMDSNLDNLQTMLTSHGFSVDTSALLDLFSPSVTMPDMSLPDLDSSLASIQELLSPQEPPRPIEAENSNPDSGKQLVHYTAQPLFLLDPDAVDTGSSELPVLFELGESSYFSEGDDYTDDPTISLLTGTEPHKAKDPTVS

[7] = inhibitors of SNCA 5'UTR-driven reporter translation, confirmation, H4 neuroglioma cells, luminescence (AID 1988); format: functional, cell-based
[8] = biological target: Luciferin 4-monooxygenase (Photinus pyralis, UniProt P08659); experiment: firefly luciferase enzyme inhibitors, dose response, biochemical, luminescence (AID 1891)
[9] = Luminescence Cell-Based Dose Confirmation HTS to Identify Inhibitors of Platelet Dense Granule Release. [Related pubchem assays: 1663 (Primary HTS), 1678 (Summary of Project)]; format: functional
[10] = Luminescence-based counterscreen assay for KLF5 inhibitors: dose response cell-based high throughput screening assay to identify cytotoxic compounds using the IEC-6 intestinal epithelial cell line. [Related pubchem assays: 1700 (Primary screen.), 1834 (Confirmation screen.), 1858 (Summary AID.), 1905 (Counterscreen.)]; format: functional
[11] = inhibitors of SNCA 5'UTR-driven translation, confirmation, luminescence, H4 neuroglioblastoma cells, dose confirmation (AID 2454); format: functional, cell-based;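 also: H4 neuroglioblastoma cells carrying an alpha-synuclein 5'UTR luciferase reporter; potency for inhibition of the luciferase signal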
Vero [12] = experiment: cells; format: functional, cell-based; conditions: Chlorocebus sabaeus
Vero [13] = experiment: cells; format: functional; conditions: Chlorocebus sabaeus
[14] = Shn3 3'UTR reporter inhibitors, dose response, cell-based, Clone20 osteoblasts, firefly luciferase, cherry-picked (AID 624132); format: functional;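 also: firefly luciferase luminescence from reporter carrying the Shn3 3'UTR in osteoblasts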
[15] = HepG2 cell cytotoxicity, dose response, cytotoxicity control for Shn3 inhibitor project, CellTiter-Glo, cherry-picked (AID 624134); format: functional, cell-based
[16] = biological target: Lysosomal acid glucosylceramidase (Homo sapiens, UniProt P04062); experiment: Dose response cell-based high throughput screening assay to identify enhancers of beta-glucosidase activity. [Related pubchem assays: 784 ]; format: functional
[17] = biological target: Acyl-homoserine lactone acylase PvdQ (Pseudomonas aeruginosa (strain LESB58), UniProt Q9I194); experiment: P. aeruginosa PvdQ acylase inhibitors, dose response, biochemical, fluorescence, plate reader and imaging, cherry-picks (AID 493231)
Sequence of Acyl-homoserine lactone acylase PvdQ (Q9I194 24-193 limits assumed): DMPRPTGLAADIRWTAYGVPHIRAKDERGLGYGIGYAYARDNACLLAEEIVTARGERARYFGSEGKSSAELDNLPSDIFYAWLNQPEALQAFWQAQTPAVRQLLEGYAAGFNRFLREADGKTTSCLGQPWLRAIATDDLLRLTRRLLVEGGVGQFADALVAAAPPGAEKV
Sequence of Acyl-homoserine lactone acylase PvdQ (Q9I194 217-762 limits assumed): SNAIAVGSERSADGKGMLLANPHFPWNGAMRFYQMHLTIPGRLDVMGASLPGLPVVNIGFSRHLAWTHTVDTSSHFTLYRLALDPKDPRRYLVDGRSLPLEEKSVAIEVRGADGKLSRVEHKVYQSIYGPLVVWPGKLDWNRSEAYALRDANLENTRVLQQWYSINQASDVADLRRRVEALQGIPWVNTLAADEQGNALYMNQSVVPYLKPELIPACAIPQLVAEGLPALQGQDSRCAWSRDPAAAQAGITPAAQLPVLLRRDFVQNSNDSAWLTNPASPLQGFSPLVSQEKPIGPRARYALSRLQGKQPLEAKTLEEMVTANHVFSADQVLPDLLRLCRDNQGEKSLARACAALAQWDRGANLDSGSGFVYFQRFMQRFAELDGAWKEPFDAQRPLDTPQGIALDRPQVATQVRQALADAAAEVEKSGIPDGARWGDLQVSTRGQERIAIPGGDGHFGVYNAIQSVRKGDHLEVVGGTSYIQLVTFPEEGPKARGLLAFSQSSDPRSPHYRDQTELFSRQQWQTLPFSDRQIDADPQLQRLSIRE

[18] = biological target: T4, Voltage-gated N-type calcium channel alpha-1B subunit/Amyloid beta A4 precursor protein-binding family A member 1 (Homo sapiens, UniProt Q00975+Q02410); format: protein assay
T4 sequence (Q00975 whole entry): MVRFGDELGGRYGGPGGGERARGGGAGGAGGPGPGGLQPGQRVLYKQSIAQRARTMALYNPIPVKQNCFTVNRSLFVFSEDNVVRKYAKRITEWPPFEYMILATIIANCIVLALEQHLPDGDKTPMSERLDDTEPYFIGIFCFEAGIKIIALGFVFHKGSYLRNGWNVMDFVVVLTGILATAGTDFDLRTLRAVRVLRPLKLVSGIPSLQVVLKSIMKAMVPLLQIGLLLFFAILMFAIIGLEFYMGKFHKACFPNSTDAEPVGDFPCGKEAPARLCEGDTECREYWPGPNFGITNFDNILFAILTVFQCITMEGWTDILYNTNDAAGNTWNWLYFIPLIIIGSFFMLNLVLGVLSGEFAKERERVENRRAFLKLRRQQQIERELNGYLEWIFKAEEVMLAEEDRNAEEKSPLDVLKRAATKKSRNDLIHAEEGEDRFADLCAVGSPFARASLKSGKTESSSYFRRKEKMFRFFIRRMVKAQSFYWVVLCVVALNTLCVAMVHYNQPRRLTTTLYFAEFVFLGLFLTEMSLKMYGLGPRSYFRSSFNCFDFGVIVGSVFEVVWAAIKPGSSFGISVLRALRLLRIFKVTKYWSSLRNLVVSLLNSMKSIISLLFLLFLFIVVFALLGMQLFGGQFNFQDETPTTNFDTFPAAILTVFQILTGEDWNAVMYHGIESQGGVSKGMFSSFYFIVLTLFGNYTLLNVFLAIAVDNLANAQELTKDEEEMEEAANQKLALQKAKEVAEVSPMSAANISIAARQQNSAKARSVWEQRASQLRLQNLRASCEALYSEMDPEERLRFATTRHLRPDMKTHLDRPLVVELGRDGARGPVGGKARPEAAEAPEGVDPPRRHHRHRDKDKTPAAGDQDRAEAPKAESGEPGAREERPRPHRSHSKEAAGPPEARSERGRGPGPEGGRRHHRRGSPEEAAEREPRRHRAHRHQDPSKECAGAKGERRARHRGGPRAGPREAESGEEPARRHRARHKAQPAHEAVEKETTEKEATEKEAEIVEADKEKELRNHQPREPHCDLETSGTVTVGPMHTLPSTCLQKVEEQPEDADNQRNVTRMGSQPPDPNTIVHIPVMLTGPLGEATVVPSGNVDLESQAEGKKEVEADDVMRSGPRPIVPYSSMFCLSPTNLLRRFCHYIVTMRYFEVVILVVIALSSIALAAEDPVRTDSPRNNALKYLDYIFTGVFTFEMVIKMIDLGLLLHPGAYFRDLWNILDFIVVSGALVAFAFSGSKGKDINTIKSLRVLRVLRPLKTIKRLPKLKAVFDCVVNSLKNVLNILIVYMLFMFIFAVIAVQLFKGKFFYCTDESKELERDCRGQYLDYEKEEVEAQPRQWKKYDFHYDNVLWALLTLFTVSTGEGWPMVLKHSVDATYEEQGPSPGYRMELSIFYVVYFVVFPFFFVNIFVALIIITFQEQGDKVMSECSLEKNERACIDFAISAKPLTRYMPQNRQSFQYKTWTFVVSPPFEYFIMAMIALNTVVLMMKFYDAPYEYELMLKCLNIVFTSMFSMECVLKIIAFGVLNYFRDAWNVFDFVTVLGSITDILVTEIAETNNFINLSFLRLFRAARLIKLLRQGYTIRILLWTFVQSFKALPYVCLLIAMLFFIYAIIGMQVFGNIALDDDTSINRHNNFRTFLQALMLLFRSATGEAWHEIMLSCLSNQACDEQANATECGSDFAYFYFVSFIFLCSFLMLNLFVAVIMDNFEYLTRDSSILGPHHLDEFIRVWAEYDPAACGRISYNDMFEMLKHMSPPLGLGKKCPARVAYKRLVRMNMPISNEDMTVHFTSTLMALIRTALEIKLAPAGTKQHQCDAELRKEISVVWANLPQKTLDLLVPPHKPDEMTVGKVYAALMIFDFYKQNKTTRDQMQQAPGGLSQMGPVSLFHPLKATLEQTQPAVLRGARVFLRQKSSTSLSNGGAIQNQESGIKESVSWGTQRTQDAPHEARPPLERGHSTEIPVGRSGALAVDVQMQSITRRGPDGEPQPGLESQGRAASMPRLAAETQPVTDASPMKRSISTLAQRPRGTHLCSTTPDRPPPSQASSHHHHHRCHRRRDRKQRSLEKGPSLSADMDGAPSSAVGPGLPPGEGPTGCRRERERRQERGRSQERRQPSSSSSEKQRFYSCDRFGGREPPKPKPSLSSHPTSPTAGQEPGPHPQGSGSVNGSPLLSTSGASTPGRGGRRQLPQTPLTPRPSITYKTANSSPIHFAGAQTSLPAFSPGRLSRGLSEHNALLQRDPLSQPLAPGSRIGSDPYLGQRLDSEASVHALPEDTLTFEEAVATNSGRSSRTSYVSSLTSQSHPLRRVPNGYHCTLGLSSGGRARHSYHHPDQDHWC
T4 sequence (Q02410 whole entry): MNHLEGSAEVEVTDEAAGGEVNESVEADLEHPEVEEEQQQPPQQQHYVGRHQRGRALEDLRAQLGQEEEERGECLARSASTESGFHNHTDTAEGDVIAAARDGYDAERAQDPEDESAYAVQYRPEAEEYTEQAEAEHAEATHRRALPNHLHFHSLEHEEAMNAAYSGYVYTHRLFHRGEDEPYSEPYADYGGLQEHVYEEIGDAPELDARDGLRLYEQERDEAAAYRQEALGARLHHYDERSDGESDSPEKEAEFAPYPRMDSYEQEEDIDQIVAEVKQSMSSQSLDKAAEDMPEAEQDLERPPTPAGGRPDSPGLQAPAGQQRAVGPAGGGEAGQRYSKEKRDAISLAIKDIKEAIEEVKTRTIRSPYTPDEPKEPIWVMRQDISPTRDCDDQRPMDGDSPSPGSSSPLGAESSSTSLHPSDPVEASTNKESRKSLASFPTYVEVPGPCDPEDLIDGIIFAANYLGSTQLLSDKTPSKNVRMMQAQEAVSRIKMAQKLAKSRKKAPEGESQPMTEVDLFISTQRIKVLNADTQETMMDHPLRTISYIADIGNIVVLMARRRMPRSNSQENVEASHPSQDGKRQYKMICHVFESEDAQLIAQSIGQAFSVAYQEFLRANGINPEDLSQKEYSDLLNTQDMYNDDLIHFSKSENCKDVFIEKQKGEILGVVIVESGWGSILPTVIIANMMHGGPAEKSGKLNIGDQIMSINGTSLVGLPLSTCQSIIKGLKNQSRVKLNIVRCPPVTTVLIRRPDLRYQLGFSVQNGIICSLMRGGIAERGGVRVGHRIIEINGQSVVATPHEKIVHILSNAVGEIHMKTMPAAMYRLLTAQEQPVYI

[19] = biological target: T4, Voltage-gated N-type calcium channel alpha-1B subunit/Amyloid beta A4 precursor protein-binding family A member 1; format: protein assay; remark: listed apart in the source
[20] = biological target: T4, Voltage-gated N-type calcium channel alpha-1B subunit/Amyloid beta A4 precursor protein-binding family A member 1; experiment: disruptors of Mint-PDZ/N-type channel peptide interaction – biochemical, HTRF, SAR follow-up (AID 2489); format: functional
[21] = biological target: T5, C-C chemokine receptor type 6 (Homo sapiens, UniProt P51684); experiment: CCR6 receptor antagonists, dose response, cell-based, luminescent beta-arrestin readout (AID 504728); format: functional
T5 sequence (P51684 whole entry): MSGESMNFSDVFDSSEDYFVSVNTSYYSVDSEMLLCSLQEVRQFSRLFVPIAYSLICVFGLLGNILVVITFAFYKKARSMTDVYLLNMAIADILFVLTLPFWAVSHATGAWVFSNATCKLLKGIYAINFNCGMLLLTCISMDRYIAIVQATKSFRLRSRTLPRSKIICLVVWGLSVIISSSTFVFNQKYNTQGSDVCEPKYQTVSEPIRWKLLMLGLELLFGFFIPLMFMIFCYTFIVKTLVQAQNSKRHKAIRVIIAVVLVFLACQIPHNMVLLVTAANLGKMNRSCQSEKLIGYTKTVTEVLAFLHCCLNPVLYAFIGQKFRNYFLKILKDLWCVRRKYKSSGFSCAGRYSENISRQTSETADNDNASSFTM

Beta-galactosidase = Beta-galactosidase (Escherichia coli, UniProt Q8VNN2); experiment: beta-galactosidase enzyme inhibitors and activators, dose response, artefact control for CCR6 antagonist project, biochemical, E. coli enzyme, set 3 (AID 504712); format: functional
Sequence of Beta-galactosidase (Q8VNN2 whole entry): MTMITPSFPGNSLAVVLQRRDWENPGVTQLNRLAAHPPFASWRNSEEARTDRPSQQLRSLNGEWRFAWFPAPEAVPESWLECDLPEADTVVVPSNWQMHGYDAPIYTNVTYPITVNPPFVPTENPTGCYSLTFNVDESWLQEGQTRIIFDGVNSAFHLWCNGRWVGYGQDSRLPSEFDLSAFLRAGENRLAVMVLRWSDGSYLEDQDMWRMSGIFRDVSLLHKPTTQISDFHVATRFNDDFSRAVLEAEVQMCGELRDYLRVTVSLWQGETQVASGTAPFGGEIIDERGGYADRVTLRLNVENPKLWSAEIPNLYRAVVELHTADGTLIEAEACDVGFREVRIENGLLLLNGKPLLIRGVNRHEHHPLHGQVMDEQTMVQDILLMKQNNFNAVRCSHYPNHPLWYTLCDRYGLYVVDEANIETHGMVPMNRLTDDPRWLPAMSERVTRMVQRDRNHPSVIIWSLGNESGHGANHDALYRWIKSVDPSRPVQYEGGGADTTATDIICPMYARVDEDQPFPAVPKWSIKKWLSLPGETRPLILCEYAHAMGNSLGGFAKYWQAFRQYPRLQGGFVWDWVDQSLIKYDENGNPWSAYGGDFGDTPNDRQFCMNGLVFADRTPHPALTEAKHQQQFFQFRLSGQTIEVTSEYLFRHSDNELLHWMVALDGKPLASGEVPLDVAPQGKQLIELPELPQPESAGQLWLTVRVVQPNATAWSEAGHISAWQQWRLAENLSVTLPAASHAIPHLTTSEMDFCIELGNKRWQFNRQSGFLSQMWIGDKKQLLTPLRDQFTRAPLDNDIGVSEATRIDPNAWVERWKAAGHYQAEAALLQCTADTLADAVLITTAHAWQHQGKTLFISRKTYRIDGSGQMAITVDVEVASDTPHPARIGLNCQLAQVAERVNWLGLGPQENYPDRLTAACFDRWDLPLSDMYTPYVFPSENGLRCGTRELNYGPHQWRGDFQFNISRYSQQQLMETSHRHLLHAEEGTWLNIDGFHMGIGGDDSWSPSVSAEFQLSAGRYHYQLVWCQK

Cc1cccc(-c2nnc(SCc3nc4ccccc4[nH]3)n2Cc2ccco2)c1
IC50 [1]: 22.5 µM (not active) | IC50 (Insulin-degrading enzyme): 5.67 µM (active) | EC50 [2]: 1.19 µM (active)

CN1CCN(c2ccc(-c3ccc4ccccc4n3)cc2)CC1
EC50 [3]: < 0.195 µM (active) | EC50 [4]: 0.134 µM (active) | EC50 (cells): 0.123 µM (active) | EC50 [5]: < 0.1 µM (active) | EC50 [6]: < 0.16 µM (active) | EC50 [7]: < 0.1 µM (active) | EC50 [8]: 0.953 µM (active) | EC50 [9]: 1.66 µM (active) | IC50 [10]: 26.6 µM (not active) | EC50 [11]: 0.039 µM (active) | IC50 (Vero [12]): > 25 µM (active) | CC50 (Vero [13]): > 25 µM (active) | AC50 [14]: 2.73 µM (active) | AC50 [15]: 22.6 µM (active)

Cc1cc2ccccc2c(=O)n1CC(=O)NCC(=O)N1CCN(c2ccccc2)CC1
EC50 [16]: > 10 µM (not active)

Cc1cccc(N2CCN(C(=O)c3cccc(N4C(=O)C5CC=CC(C)C5C4=O)c3)CC2)c1C (stereo unspecified)
IC50 [1]: 23.8 µM (not active) | IC50 (Insulin-degrading enzyme): 4 µM (active)

Cc1cc(NC(=O)c2cc(Cl)ccc2Cl)no1
AC50 [17]: > 100 µM (inactive)

CCCCc1ccc(/C=C2\C(=O)c3ccccc3C(O)=C2C(=O)OCC)cc1
IC50 [18]: 17.8 µM (active) | IC50 [19]: 5.63 µM (active) | IC50 [20]: 16.2 µM (active)

CN1CCN(c2ccccc2NC(=O)c2ccc(-c3cccc(Cl)c3)o2)CC1
IC50 [21]: > 66.6 µM (inactive) | IC50 (Beta-galactosidase): > 66.6 µM (inactive)
